Results: patent US7579370B2, “Fused heterocycles” (Sepracor Inc., priority 2006, dated 2009)

Legend:
Sprague-Dawley rats = test: Rat Chung model (L5 spinal nerve ligation), paw withdrawal threshold with von Frey hairs; format: in vivo
Protocol: Adult male Sprague-Dawley rats, weighing 200-230 g at the time of surgery, were used. They were housed in groups of 4 in an air-conditioned room on a 12 h light/dark cycle. Food and water were available ad libitu. The animals were allowed to acclimatize to the experimental environment for three days by leaving them on a lifted metal mesh for at least 40 min. The baseline paw withdrawal threshold (PWT) was examined using a series of graduated von Frey hairs for 3 consecutive days before surgery and re-assessed on the 7th day after surgery and on the 11th to 14th day before drug dosing. The rat Chung model was prepared as described by Kim and Chung (1992). The rat was anaesthetized with 5% isoflurane mixed with oxygen (2 L per min) followed by an i.p. injection of sodium pentobarbitone at 50 mg/kg. The back was shaved and sterilized with 75% ethanol. The animal was placed in a prone position and a para-medial incision was made on the skin covering L4-6 level. The L5 spinal nerve was carefully isolated and tightly ligated with 6/0 silk suture. The wound was then closed in layers after a complete hemostasis. A single dose of antibiotics (Amoxipen 15 mg/rat, ip) was routinely given for prevention of infection after surgery. The animals were placed in a temperature controlled recovery chamber until fully awake before being returned to the home cage. The animals were placed in individual Perspex boxes on a raised metal mesh for at least 40 min before the test. Starting with the filament of lowest force, each filament was applied perpendicularly to the center of the ventral surface of the paw until slightly bent for 6 seconds. If the animal withdrew or lifted the paw upon stimulation, then a hair with force immediately lower than that tested was used. If no response was observed, then a hair with force immediately higher was tested. The lowest amount of force required to induce reliable responses (positive in 3 out of 5 trials) was recorded as the value of PWT. Only those animals with significant allodynia (PWT≦3.5 g) were selected for drug dosing experiments. The rats in a neuropathic pain state were randomly divided into experimental groups: Vehicle group and 1 group had 8 rats and the gabapentin group had 9 rats. The drug test was carried out 12 to 14 days after surgery. Isotonic 50 mM phosphate buffer (PB), dosed orally at 3 mL/kg, served as the vehicle control. Gabapentin was dissolved in normal saline and given orally at 100 mg/kg. […] The PWT was assessed at 1, 3, 6 and 24 h following drug or vehicle administration. The animals were returned to their home cage for a break (about 30 min) between two neighboring testing time points. One-way analysis of variance (ANOVA) (SPSS software) was used for statistical analysis to compare different groups on the same time points. Paired Student -t test was used to compare different time points in the same group. The significance level was set at P<0.05.

Human DAAO = Human DAAO (Homo sapiens, UniProt P14920); test: D-Amino Acid Oxidase enzyme assay (D-serine, horseradish peroxidase/Amplex Red coupled); format: biochemical; conditions: D-serine 5 mM, pH 7.4; read-out: Human DAAO Inhibition [IC50]
Chain of Human DAAO (P14920 whole entry): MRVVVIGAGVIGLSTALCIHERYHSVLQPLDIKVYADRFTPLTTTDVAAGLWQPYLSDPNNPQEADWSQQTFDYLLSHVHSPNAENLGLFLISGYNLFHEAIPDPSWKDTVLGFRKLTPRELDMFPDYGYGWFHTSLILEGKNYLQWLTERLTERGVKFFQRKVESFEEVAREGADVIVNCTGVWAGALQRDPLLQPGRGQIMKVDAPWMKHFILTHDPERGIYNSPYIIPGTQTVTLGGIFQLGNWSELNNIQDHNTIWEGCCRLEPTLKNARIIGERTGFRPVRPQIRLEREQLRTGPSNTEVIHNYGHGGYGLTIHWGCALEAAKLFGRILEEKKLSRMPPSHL
Protocol: This coupled reaction uses the enzyme substrate Amplex Red (Molecular Probes), which is converted to the fluorescent reaction product, resorufin (excitation 530-560 nm; emission ˜590 nm). Although DAAO has a higher pH optimum, all reagents were prepared in 50 mM sodium phosphate buffer at pH 7.4 and inhibition curves were generated at this pH.
The reactions were initiated by addition of DAAO enzyme while the fluorescence was monitored. […] Inhibition curves were generated in the presence of varying concentrations of the inhibitor and IC50 values were calculated for each inhibitor.

Row | Structure (SMILES) | IC50 (Human DAAO) | further results
1 | O=C(O)c1cc2occc2[nH]1 [Compound 11, 4H-Furo[3,2-b]pyrrole-5-carboxylic acid] | – | Effect on paw withdrawal threshold (PWT) (Sprague-Dawley rats; oral dose of 10 mg/kg): significantly elevated the PWT
2 | O=C(O)c1cc2occ(CCc3ccccc3)c2[nH]1 [Compound 17, 3-phenethyl-4H-furo[3,2-b]pyrrole-5-carboxylic acid] | < 1 µM | –
3 | O=C(O)c1cc2oc(Cc3ccccc3)cc2[nH]1 [Compound 24, 2-benzyl-4H-furo[3,2-b]pyrrole-5-carboxylic acid] | < 100 µM | –
4 | O=C(O)c1cc2occ(Cc3ccccc3)c2[nH]1 [Compound 26, 3-benzyl-4H-furo[3,2-b]pyrrole-5-carboxylic acid] | < 100 µM | –
5 | C=Cc1coc2cc(C(=O)O)[nH]c12 [Compound 32, 3-vinyl-4H-furo[3,2-b]pyrrole-5-carboxylic acid] | < 0.1 µM | –
6 | C/C=C\c1coc2cc(C(=O)O)[nH]c12 [Compound 46, (Z)-3-(prop-1-enyl)-4H-furo[3,2-b]pyrrole-5-carboxylic acid] | < 100 µM | –
7 | O=C(O)c1cc2occ(/C=C/c3ccccc3)c2[nH]1 [Compound 48, (E)-3-Styryl-4H-furo[3,2-b]pyrrole-5-carboxylic acid] | < 100 µM | –
8 | NCC1(CC(=O)O)CCCCC1 [Gabapentin] | – | Course of the effect on PWT after the peak (Sprague-Dawley rats; orally dosed at 100 mg/kg): gradually declined from 6 hours onwards; Time at which the effect on PWT commenced after dosing (Sprague-Dawley rats; orally dosed at 100 mg/kg): first hour; Time of peak effect on PWT after dosing (Sprague-Dawley rats; orally dosed at 100 mg/kg): 3 h; Effect on paw withdrawal threshold (PWT) (Sprague-Dawley rats; orally dosed at 100 mg/kg, positive control): significantly increased the PWT
